Reference: publication PMC6801819, “Exogenous Iron Increases Fasciocidal Activity and Hepatocellular Toxicity of the Synthetic Endoperoxides OZ78 and MT04” (International Journal of Molecular Sciences, 2019)

What was measured:
[1] = system: complex I of the mitochondrial electron transport chain; experiment: High-resolution respirometry, glutamate/malate (complex I); format: cell-based, human; conditions: AS 100 µM, OZ78 500 µM, MT04 500 µM, 24 h, permeabilized HepG2, vs DMSO
Protocol: After incubation with different drugs for 24 h, HepG2 cells were trypsinized and resuspended in DMEM with 10% fetal calf serum (FCS) and then centrifuged for 5 min (180× g). Cells were resuspended in MiRo5 respiration buffer (110 mM sucrose, 0.5 mM ethylene glycol-bis(β-aminoethyl ether)-N,N,N′,N′-tetraacetic acid (EGTA), 3.0 mM MgCl2, 80 mM KCl, 60 mM K-lactobionate, 10 mM KH2PO4, 20 mM taurine, 20 mM Hepes, 1.0 g/L BSA, pH 7.1). Respiration rates were measured at 37 °C using a high-resolution oxygraph (Oxygraph-2k, Oroboros Instruments, Innsbruck, Austria). Respiration rates were calculated as the time derivative of oxygen concentration measured in the closed respirometer. The amplified signal was recorded in a computer with an online display of the calibrated oxygen concentration and oxygen flux (DatLab software for data acquisition and analysis; Oroboros Instruments). The mitochondrial complex activity was assessed by a standard titration protocol: first cells were permeabilized with digitonin (10 µg/1 million cells) for 5 min. Afterward, for complex I-dependent maximal respiration stimulation, substrates added were glutamate (10 mM) and malate (5 mM), which provide nicotinamide adenine dinucleotide (NADH) to the respiratory chain (complex I activation), followed by addition of ADP (2.5 mM) (state 3, maximal respiration). After a stable signal was reached and marked, rotenone (0.5 µM) was added to inhibit complex I, and then complex II-dependent respiration was stimulated by adding succinate (10 mM), which provides flavin adenine dinucleotide (FADH) to the respiratory chain (complex II activation, state 3). Afterward, complex III was inhibited by antimycin A (2.5 µM), and complex IV-dependent respiration was measured by adding ascorbate (2 mM) and N,N,N′,N′-tetramethyl-p-phenylendiamine (TMPD, 0.5 mM). We confirmed the integrity of the outer mitochondrial membrane by showing the absence of a stimulatory effect of exogenous cytochrome c (10 µM) on respiration. Respiration was expressed as oxygen consumption per 5 × 10^5 cells.

NMRI mice = experiment: Liver toxicity study in mice (plasma AST, aPhos, bilirubin, liver histology); format: in vivo, mouse; conditions: for Histopathologic observation: liver 8 hours; for plasma alkaline phosphatase (aPhos) / plasma aspartate aminotransferase (AST) / total serum bilirubin: single oral dose 200-800 mg/kg, 8 h post-treatment; for hepatic toxicity in vivo (overall): single oral doses up to 800 mg/kg
Protocol: All animal studies were carried out at the Swiss Tropical and Public Health Institute (Basel, Switzerland) and were approved by Swiss and cantonal authorities (permission: 2070). Female NMRI mice (age: 3–4 weeks, weight: ~20 g) were purchased from Harlan Laboratories (Horst, The Netherlands). Mice were kept in groups of 10 animals in macrolon-cages in environmentally controlled conditions (temperature: ~25 °C; humidity: ~70%; 12 h light/dark cycle) and acclimatized for one week. They had free access to water and rodent diet. For the in vivo studies AS, OZ78 or MT04 were suspended in 7% (v/v) Tween-80 and 3% (v/v) ethanol.
Since treatment of F. hepatica infections in animals is typically performed by a single oral dose, we performed a pilot study to find out the best time point to kill the mice at which we could observe hepatic toxicity after drug application. This time point was 8 h after drug application (data not shown).
In the final experiment, mice were treated with 200, 400, or 800 mg/kg AS, OZ78, or MT04 by oral gavage. Seven mice were left untreated for control measurements. According to the results of the pilot experiments, where we measured the highest increase in total serum bilirubin, AST or alkaline phosphatase 8 h post-treatment, mice were euthanized by CO2 8 h post-treatment, blood was collected and analyzed as described above. After blood collection, the liver was removed, carefully examined macroscopically, and gross lesions were recorded. Livers were then stored in formalin 10% (v/v) until fixation in 4% paraformaldehyde was performed. After embedding in paraffin, sections of 5 μm thickness were obtained, stained with hematoxylin and eosin, and examined using light microscopy.

HepG2 cells = experiment: Adenylate kinase leakage (membrane integrity test); format: cell-based, human; conditions: 24 h, HepG2; for increase in AK release as compared to DMSO control / membrane integrity: 500 µM alone (OZ78, MT04: up to 500 µM); for release of AK, increase as compared to DMSO: combined treatment with Fe2+, concentration not given
Protocol: Stock solutions of the drugs tested were prepared in DMSO 100% (v/v).
In viability assays, HepG2 cells were treated with 0.1% Triton-X or 0.1% DMSO for positive or negative control, respectively.
The assay was used according to the protocol supplied by the manufacturer.

human liver microsomes = experiment: Metabolism in the presence of human liver microsomes; format: in vitro ADME; conditions: 10 µM, 2 hours; for parent substance metabolized: functional human liver microsomes, 37 °C
Protocol: The metabolism of AS, MT04, and OZ78 was tested in the presence of human liver microsomes or heat-inactivated microsomes (70 °C for 20 min, referred to as control microsomes) at 37 °C. AS, MT04 or OZ78 (10 µM each) were added to 1.0 mL of reaction mixture consisting of microsomes ([…]), an NADPH regenerating system, and PBS buffer, pH 7.4. Adding the drugs started the reaction. Aliquots of 100 µL were transferred into Eppendorf tubes after 0, 15, 30, 60, 120 min. The reaction was stopped by adding 300 µL methanol. The samples were then vortexed and centrifuged at 3000 g for 30 min. Supernatants were taken for LC-MS analysis.
LC-MS/MS measurements for AS were performed as described recently. Briefly, sample measurements were done with a high-performance liquid chromatography (HPLC) system (Shimadzu, Kyoto, Japan) connected to an API 365 triple-quadrupole mass spectrometer (PE Biosystems, Foster City, CA, USA) with a turbo ion spray interface. AS was detected in positive ionization mode by selected reaction monitoring (SRM) with a transition of 267.4→163.0. For analyte separation, a reversed phase column was used (2.1 × 10 mm guard cartridge (3 μm) connected to a 2.1 × 20 mm Atlantis T3 3 μm analytical column (Waters, Milford, MA, USA)). A gradient was used (mobile phase A: 5 mM ammonium formiate plus 0.15% (v/v) formic acid in ultra-pure water, mobile phase B: 0.15% (v/v) formic acid in acetonitrile) at a flow rate of 0.3 mL/min.
The analysis of MT04 and OZ78 [42] was conducted using the same system as described for AS. A phenomenex C8 (50mm × 2.00mm, 5µm, Brechbühler AG, Schlieren, Switzerland) was used for chromatographic separation with a gradient (mobile A: 5 mM ammonium formiate in water and mobile B: acetonitrile) at a flow rate of 0.3 mL/min. MS was conducted in negative ionization mode. For OZ78 and MT04 a mass of 321.4 and 337.4, respectively, was detected.

Row | SMILES | inhibition of maximal ADP-stimulated respiration rate, glutamate + malate (complex I) [1] | Histopathologic observation (NMRI mice; 200 mg/kg oral, mouse 1) | Histopathologic observation (NMRI mice; 200 mg/kg oral, mouse 2) | Histopathologic observation (NMRI mice; 200 mg/kg oral, mouse 3) | Histopathologic observation (NMRI mice; 400 mg/kg oral, mouse 1) | Histopathologic observation (NMRI mice; 400 mg/kg oral, mouse 2) | Histopathologic observation (NMRI mice; 400 mg/kg oral, mouse 3) | Histopathologic observation (NMRI mice; 800 mg/kg oral, mouse 1) | Histopathologic observation (NMRI mice; 800 mg/kg oral, mouse 2) | Histopathologic observation (NMRI mice; 800 mg/kg oral, mouse 3) | liver histology, group summary (NMRI mice; mice, 200 mg/kg oral, 8 h) | liver histology, group summary (NMRI mice; mice, 800 mg/kg oral, 8 h) | plasma alkaline phosphatase (aPhos) (NMRI mice; mice) | plasma aspartate aminotransferase (AST) (NMRI mice; mice) | total serum bilirubin (NMRI mice; mice) | increase in AK release as compared to DMSO control / membrane integrity (HepG2 cells) | parent substance metabolized (human liver microsomes) | Histopathologic observation (NMRI mice; 200 mg/kg oral, mouse 4) | Histopathologic observation (NMRI mice; 400 mg/kg oral, mouse 4) | Histopathologic observation (NMRI mice; 800 mg/kg oral, mouse 4) | also measured
1 | C[C@H]1[C@H](OC(=O)CCC(=O)O)O[C@@H]2O[C@@]3(C)CC[C@H]4[C@H](C)CC[C@@H]1[C@@]24OO3 [AS, artesunate, reference compound] | 75% | No lesions | No lesions | No lesions | No lesions | No lesions | Beginning nodular regeneration | Steatosis | Small area of confluent necrosis | No lesions | not associated with liver injury | one mouse was without lesions, one with steatosis, and one with confluent necrosis | did not increase | moderately increased with escalating doses | did not increase | 270% | 94% |  |  |  | time of highest values of AST, aPhos and total serum bilirubin (pilot study) (NMRI mice; mice, single oral dose 400 mg/kg, sampled 2, 4, 8, 12, 24 h): 8 h; liver lesions (pilot study) (NMRI mice; mouse, in vivo, po, 400 mg/kg): no liver lesions were observed; membrane leakage (AK release) as compared to DMSO control (HepG2 cells; 100 µM + Fe2+): 320%; increase in AK release as compared to DMSO control (HepG2 cells; 100 µM alone): 190%; degradation of parent substance (human liver microsomes; heat-inactivated microsomes): no degradation was detected
2 | O=C(O)CC1CCC2(CC1)OOC1(OO2)C2CC3CC(C2)CC1C3 (stereo not drawn) [MT04] | 53% | No lesions | No lesions | No lesions | Nuclear polymorphism | Nuclear polymorphism | No lesions | No lesions | Slight hydropic degeneration | Slight hydropic degeneration and nuclear polymorphism |  | Three out of four mice treated with 800 mg/kg MT04 presented hydropic degeneration |  | did not affect AST levels in a concentration-dependent fashion |  | did not impair membrane integrity | did not show a decrease | Nuclear polymorphism | No lesions | Slight hydropic degeneration and nuclear polymorphism | AST values of single mice (NMRI mice; mice, 200 mg/kg oral, 8 h): Two mice treated with 200 mg/kg MT04 had highly elevated AST values; liver histology, group summary (NMRI mice; mice, 400 mg/kg oral, 8 h): no pathologic liver histology; hepatic toxicity in vivo (overall) (NMRI mice; mice, 8 h): no relevant hepatic toxicity; release of AK, increase as compared to DMSO (HepG2 cells): 200%
3 | O=C(O)C[C@H]1CC[C@]2(CC1)OOC1(O2)C2CC3CC(C2)CC1C3 (stereo partly drawn) [OZ78] | did not significantly impair mitochondrial function | No lesions | Slight hydropic degeneration | Slight hydropic degeneration | Slight hydropic degeneration | Passive congestion | Nuclear polymorphism | Slight hydropic degeneration | No lesions | Passive congestion | two mice (out of four) with slight hydropic degeneration of hepatocytes | two mice (out of four) with slight hydropic degeneration of hepatocytes | in the normal range | in the normal range | in the normal range | did not impair membrane integrity | did not show a decrease | No lesions | Slight hydropic degeneration | Slight hydropic degeneration | liver histology, group summary (NMRI mice; mice, 400 mg/kg oral, 8 h): two mice (out of four) with slight hydropic degeneration of hepatocytes; hepatic toxicity in vivo (overall) (NMRI mice; mice, 8 h): no relevant hepatic toxicity; release of AK, increase as compared to DMSO (HepG2 cells): did not
